Counter-ions that a name gives are not always drawn. Like-named read-outs stand apart in the source and are kept apart here. Each block holds one compound with its values, some of them ahead of it.
Legend:
Assay type in all cases: biochemical
[1] = biological target: T1, human JAK3 (a.a. 781-1124) (Homo sapiens, UniProt P52333); assay: In vitro JAK kinase assay (HTRF, phosphorylation of a biotinylated peptide), JAK3
T1 construct: JAK3 (a.a. 781-1124); His tag (N); made in house; host or cells: insect cells (baculovirus)
T1 sequence (P52333 781-1124): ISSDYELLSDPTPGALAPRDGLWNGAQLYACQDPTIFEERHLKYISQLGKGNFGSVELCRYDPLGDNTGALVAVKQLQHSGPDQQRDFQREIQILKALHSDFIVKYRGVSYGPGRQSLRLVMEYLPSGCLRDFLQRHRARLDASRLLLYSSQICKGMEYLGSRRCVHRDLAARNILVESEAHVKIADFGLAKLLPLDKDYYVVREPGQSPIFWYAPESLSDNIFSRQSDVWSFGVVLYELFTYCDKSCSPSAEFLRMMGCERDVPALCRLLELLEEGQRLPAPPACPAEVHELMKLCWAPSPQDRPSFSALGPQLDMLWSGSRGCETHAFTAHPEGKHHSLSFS
In short: (§1)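 Phosphorylation of a biotinylated peptide by the JAK kinase domain, detected by HTRF with Eu-Py20 and SA-APC. ATP was 90 μM for JAK1, 30 μM for JAK2 and 3 μM for JAK3. Reactions ran 1 h at room temperature and were stopped with EDTA, followed by 40 min antibody binding.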

[2] = biological target: T2, human JAK1 (a.a. 837-1142) (Homo sapiens, UniProt P23458); assay: In vitro JAK kinase assay (HTRF, phosphorylation of a biotinylated peptide), JAK1; details: read-out: JAK1 IC50
T2 construct: human JAK1 (a.a. 837-1142); His tag (N); made in house; host or cells: insect cells (baculovirus)
T2 sequence (P23458 849-1154): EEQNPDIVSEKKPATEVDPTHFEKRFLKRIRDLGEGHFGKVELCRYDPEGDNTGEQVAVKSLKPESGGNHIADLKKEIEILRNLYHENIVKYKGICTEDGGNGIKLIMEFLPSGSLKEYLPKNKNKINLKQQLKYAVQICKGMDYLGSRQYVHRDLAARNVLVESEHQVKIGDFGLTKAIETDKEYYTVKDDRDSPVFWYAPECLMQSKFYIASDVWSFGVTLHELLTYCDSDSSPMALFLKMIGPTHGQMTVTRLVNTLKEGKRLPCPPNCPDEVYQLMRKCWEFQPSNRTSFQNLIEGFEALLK
In short: as §1

TYK2 = TYK2 (Homo sapiens, UniProt P29597); assay: TYK2 kinase inhibition (Table A1)
TYK2, sequence (P29597 whole entry): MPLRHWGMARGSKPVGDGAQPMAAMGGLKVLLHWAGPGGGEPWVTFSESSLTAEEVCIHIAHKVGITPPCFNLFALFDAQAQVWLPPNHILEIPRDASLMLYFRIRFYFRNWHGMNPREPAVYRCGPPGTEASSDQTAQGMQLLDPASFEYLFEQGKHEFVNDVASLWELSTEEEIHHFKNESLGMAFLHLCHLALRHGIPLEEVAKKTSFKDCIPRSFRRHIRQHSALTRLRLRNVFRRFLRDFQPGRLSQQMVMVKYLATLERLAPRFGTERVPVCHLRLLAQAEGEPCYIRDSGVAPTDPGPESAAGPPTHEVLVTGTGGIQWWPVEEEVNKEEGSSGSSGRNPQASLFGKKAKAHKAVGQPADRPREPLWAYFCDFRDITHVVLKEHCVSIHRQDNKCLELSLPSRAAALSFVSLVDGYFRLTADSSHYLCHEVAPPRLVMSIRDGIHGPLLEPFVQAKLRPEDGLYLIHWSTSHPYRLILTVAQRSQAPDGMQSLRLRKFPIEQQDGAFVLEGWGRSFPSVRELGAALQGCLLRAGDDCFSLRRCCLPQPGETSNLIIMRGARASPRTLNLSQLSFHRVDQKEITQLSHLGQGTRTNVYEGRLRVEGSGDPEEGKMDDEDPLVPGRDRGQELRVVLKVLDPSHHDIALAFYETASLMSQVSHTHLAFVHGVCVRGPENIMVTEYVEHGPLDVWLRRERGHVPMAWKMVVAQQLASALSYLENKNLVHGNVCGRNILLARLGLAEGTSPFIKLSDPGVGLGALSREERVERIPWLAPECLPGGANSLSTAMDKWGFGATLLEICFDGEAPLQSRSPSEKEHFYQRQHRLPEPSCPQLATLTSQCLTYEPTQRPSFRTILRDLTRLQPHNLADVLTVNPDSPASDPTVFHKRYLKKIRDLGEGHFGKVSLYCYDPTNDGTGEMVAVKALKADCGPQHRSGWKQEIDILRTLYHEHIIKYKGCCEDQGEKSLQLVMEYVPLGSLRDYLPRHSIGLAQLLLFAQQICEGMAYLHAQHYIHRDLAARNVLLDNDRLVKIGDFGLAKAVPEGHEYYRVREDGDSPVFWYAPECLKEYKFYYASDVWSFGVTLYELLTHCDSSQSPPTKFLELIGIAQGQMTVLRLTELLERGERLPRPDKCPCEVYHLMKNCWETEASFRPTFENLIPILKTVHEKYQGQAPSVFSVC

[3] = biological target: T3, human JAK2 (a.a. 828-1132) (Homo sapiens, UniProt O60674); assay: In vitro JAK kinase assay (HTRF, phosphorylation of a biotinylated peptide), JAK2
T3 construct: JAK2 (a.a. 828-1132); His tag (N); made in house; host or cells: insect cells (baculovirus)
T3 sequence (O60674 828-1132): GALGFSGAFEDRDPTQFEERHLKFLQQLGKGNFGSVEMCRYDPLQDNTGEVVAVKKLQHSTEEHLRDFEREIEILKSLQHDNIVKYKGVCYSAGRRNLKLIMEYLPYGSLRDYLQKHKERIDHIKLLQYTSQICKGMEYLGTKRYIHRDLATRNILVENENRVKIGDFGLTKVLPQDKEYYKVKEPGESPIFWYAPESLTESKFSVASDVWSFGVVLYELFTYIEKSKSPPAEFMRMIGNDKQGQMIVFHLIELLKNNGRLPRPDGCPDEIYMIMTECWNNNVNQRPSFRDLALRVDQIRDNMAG
In short: as §1

[4] = biological target: T4, Recombinant Human Anaplastic Lymphoma Kinase (Homo sapiens, UniProt Q9UM73); assay: ALK HTRF kinase assay
T4 construct: purchased Invitrogen, Carlsbad, Calif
T4 sequence (Q9UM73 19-1620): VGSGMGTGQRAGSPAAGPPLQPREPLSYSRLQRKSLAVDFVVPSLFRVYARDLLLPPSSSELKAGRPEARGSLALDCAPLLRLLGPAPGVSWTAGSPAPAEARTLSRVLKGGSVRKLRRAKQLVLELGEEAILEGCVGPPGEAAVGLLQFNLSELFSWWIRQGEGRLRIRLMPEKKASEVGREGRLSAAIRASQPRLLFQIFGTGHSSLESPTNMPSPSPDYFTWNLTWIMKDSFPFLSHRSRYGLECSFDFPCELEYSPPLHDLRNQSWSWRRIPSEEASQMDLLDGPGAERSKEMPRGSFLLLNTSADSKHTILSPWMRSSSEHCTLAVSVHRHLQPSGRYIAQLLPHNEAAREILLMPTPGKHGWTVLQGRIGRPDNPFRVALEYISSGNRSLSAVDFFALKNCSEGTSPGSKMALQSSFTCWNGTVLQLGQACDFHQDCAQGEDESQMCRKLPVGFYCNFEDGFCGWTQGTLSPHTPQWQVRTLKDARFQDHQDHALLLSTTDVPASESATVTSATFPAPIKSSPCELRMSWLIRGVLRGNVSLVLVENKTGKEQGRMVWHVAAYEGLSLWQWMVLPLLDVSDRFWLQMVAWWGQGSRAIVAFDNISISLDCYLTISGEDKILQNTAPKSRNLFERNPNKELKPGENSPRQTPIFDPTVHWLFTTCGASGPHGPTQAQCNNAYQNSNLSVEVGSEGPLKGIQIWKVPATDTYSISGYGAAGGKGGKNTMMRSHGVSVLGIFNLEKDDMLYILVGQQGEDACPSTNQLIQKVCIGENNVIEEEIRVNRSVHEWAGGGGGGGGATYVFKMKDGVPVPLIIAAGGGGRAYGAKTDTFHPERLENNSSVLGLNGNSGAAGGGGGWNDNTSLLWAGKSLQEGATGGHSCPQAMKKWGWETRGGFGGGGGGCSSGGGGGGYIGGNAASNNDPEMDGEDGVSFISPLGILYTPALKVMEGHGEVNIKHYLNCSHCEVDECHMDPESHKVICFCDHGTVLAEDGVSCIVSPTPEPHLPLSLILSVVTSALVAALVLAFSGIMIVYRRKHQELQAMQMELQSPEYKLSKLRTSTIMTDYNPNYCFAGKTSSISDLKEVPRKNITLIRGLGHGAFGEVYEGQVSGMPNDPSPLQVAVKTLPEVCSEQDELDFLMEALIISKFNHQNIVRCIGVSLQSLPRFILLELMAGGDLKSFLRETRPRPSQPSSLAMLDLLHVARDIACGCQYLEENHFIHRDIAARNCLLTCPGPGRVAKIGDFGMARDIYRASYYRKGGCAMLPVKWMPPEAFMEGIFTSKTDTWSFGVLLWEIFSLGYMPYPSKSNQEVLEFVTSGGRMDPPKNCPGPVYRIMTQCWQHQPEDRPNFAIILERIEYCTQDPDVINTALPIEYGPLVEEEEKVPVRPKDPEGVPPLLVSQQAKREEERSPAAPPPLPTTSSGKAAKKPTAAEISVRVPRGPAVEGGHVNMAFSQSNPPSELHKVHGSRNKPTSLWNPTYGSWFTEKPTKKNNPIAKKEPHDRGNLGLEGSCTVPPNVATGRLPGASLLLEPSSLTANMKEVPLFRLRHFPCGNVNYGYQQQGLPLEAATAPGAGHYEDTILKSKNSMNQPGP
In short: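 Recombinant human ALK phosphorylated a biotinylated synthetic peptide. Phosphotyrosine was detected by TR-FRET between a Eu-labelled anti-phosphotyrosine antibody and streptavidin-allophycocyanin. IC50 values came from fitting signal against inhibitor concentration to a four-parameter logistic equation with variable Hill slope.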

[5] = compound at a concentration of 500 nM or 1 mM (not specified), cells shown as percentage
[6] = Table B1, cells without percent sign
[7] = method AA1 (3 μM ATP) or AA2 (1000 μM ATP), not stated per value
[8] = method AA1 (90 μM ATP) or AA2 (1000 μM ATP), not stated per value
[9] = method AA1 (30 μM ATP) or AA2 (1000 μM ATP), not stated per value
[10] = compound at 500 nM or 1 mM, 90 μM ATP
[11] = percentage inhibition of the example compound at a concentration of 500 nM or 1 mM (not specified which)

- IC50 ([1]; Table D1): 20 nM
- IC50 ([2]; Table D1): 5 nM
- IC50 (TYK2; Table D1): 16 nM
- IC50 ([3]; Table D1): 6 nM
- IC50 ([4]; Table D1, 90 μM ATP): 1370 nM
SMILES: O=S1(=O)CCc2cccc(c2)Nc2ncc(Cl)c(n2)Nc2cccc1c2 [Example D24, 6-chloro-14-thia-2,4,8,23-tetraazatetracyclo[15.3.1.1(3,7).1(9,13)]tricosa-1(21),3(23),4,6,9(22),10,12,17,19-nonaene 14,14-dioxide trifluoroacetate]

- IC50 ([1]; Table D1): 53 nM
- IC50 ([2]; Table D1): 6.2 nM
- IC50 (TYK2; Table D1): 25 nM
- IC50 ([3]; Table D1): 5.2 nM
- IC50 ([4]; Table D1, 90 μM ATP): 525 nM
SMILES: Clc1cnc2nc1Nc1cccc(c1)OCCc1cc(cc(-c3ccccc3)c1)N2 [Example D28, 6-Chloro-19-phenyl-14-oxa-2,4,8,23-tetraazatetracyclo[15.3.1.1(3,7).1(9,13)]tricosa-1(21),3(23),4,6,9(22),10,12,17,19-nonaene trifluoroacetate]

- IC50 ([1]; Table D1): 132 nM
- IC50 ([2]; Table D1): 18 nM
- IC50 (TYK2; Table D1): 27 nM
- IC50 ([3]; Table D1): 15 nM
- IC50 ([4]; Table D1, 90 μM ATP): 1220 nM
SMILES: O=C(Nc1nccs1)c1cc2cc(c1)OCCSc1cccc(c1)Nc1nc(ncc1Cl)N2 [Example D54, 6-Chloro-N-1,3-thiazol-2-yl-17-oxa-14-thia-2,4,8,24-tetraazatetracyclo[16.3.1.1(3,7).1(9,13)]tetracosa-1(22),3(24),4,6,9(23),10,12,18,20-nonaene-20-carboxamide trifluoroacetate]

- IC50 ([1]; Table D1): 42 nM
- IC50 ([2]; Table D1): 10 nM
- IC50 (TYK2; Table D1): 14 nM
- IC50 ([3]; Table D1): 4.8 nM
- IC50 ([4]; Table D1, 90 μM ATP): 1940 nM
SMILES: O=C(Nc1ccc2[nH]ccc2c1)c1cc2cc(c1)OCCSc1cccc(c1)Nc1nc(ncc1Cl)N2 [Example D56, 6-Chloro-N-1H-indol-5-yl-17-oxa-14-thia-2,4,8,24-tetraazatetracyclo[16.3.1.1(3,7).1(9,13)]tetracosa-1(22),3(24),4,6,9(23),10,12,18,20-nonaene-20-carboxamide trifluoroacetate]

- IC50 ([1]; Table D1): 66 nM
- IC50 ([2]; Table D1): 2.9 nM
- IC50 (TYK2; Table D1): 37 nM
- IC50 ([3]; Table D1): 5.3 nM
- IC50 ([4]; Table D1, 90 μM ATP): 390 nM
SMILES: COC(=O)c1cc2cc(c1)OCCSc1cccc(c1)Nc1nc(ncc1Cl)N2 [Example D43, Methyl 6-chloro-17-oxa-14-thia-2,4,8,24-tetraazatetracyclo[16.3.1.1(3,7).1(9,13)]tetracosa-1(22),3(24),4,6,9(23),10,12,18,20-nonaene-20-carboxylate trifluoroacetate]

Second part, the compound before the results:

SMILES: O=C(Nc1ccc2cc1CCc1cncc(c1)Nc1ncc(Cl)c(n1)N2)N1CCN(c2ccc(C(F)(F)F)cn2)CC1 [Example B301, N-[6-Chloro-2,4,8,18,22-pentaazatetracyclo[14.3.1.1(3,7).1(9,13)]docosa-1(20),3(22),4,6,9(21),10,12,16,18-nonaen-12-yl]-4-[5-(trifluoromethyl)pyridin-2-yl]piperazine-1-carboxamide tris(trifluoroacetate)]
- IC50 ([1]; Table B1): > 400 nM
- IC50 ([2]; Table B1): 35 nM
- IC50 (TYK2; Table B1): 75 nM
- IC50 ([3]; Table B1): > 400 nM
- ALK % of inhibition at a concentration of 500 nM or 1 mM [4, 5]: 58%

SMILES: CC(C)C(=O)Nc1ccc2cc1CCc1cccc(c1)Nc1ncc(Cl)c(n1)N2 [Example B55, N-[6-Chloro-2,4,8,22-tetraazatetracyclo[14.3.1.1(3,7).1(9,13)]docosa-1(20), 3(22),4,6,9(21),10,12,16,18-nonaen-12-yl]-2-methylpropanamide trifluoroacetate]
- IC50 ([1]; Table B1): 1.1 nM
- IC50 ([2]; Table B1): 12 nM
- IC50 (TYK2; Table B1): 23 nM
- IC50 ([3]; Table B1): 2.7 nM
- IC50 [4, 6]: 930 nM

SMILES: O=C(CC1CCN(C(=O)Nc2ccccc2)C1)Nc1ccc2cc1CCc1cncc(c1)Nc1ncc(Cl)c(n1)N2 (stereo not shown) [Example A92, 3-(2-{[6-Chloro-2,4,8,18,22-pentaazatetracyclo[14.3.1.1(3,7).1(9,13)]docosa-1(20),3(22),4,6,9(21),10,12,16,18-nonaen-12-yl]amino}-2-oxoethyl)-N-phenylpyrrolidine-1-carboxamide bis(trifluoroacetate)]
- IC50 [1, 7]: 79 nM
- IC50 [2, 8]: 1.4 nM
- IC50 (TYK2): 21 nM
- IC50 [3, 9]: 6.1 nM
- ALK % of inhibition at a concentration of 500 nM or 1 mM [4, 10]: 61%

SMILES: Cc1cc(C(=O)N2CCC(C(=O)N(C)Cc3ccc4cc3CCc3cncc(c3)Nc3ncc(Cl)c(n3)N4)CC2)no1 [Example B335, N-{[6-Chloro-2,4,8,18,22-pentaazatetracyclo[14.3.1.1(3,7).1(9,13)]docosa-1(20),3(22),4,6,9(21),10,12,16,18-nonaen-12-yl]methyl}-N-methyl-1-[(5-methylisoxazol-3-yl)carbonyl]piperidine-4-carboxamide bis(trifluoroacetate)]
- IC50 ([1]; Table B1): > 200 nM
- IC50 ([2]; Table B1): 45 nM
- IC50 (TYK2; Table B1): > 200 nM
- IC50 ([3]; Table B1): 77 nM
- ALK % of inhibition at a concentration of 500 nM or 1 mM [4, 11]: 18%

SMILES: O=C(Nc1nccs1)Nc1ccc2cc1CCc1cccc(c1)Nc1ncc(Cl)c(n1)N2 [Example B245, N-[6-Chloro-2,4,8,22-tetraazatetracyclo[14.3.1.1(3,7).1(9,13)]docosa-1(20),3(22),4,6,9(21),10,12,16,18-nonaen-12-yl]-N′-1,3-thiazol-2-ylurea trifluoroacetate]
- IC50 ([1]; Table B1): 20 nM
- IC50 ([2]; Table B1): 17 nM
- IC50 (TYK2; Table B1): 8.5 nM
- IC50 ([3]; Table B1): 78 nM
- ALK % of inhibition at a concentration of 500 nM or 1 mM [4, 5]: 41%

SMILES: NS(=O)(=O)N1CCC(C(=O)Nc2ccc3cc2CCc2cccc(c2)Nc2ncc(Cl)c(n2)N3)CC1 [Example A72, 1-(Aminosulfonyl)-N-[6-chloro-2,4,8,22-tetraazatetracyclo[14.3.1.1(3,7).1(9,13)]docosa-1(20),3(22),4,6,9(21),10,12,16,18-nonaen-12-yl]piperidine-4-carboxamide trifluoroacetate]
- IC50 [1, 7]: 10 nM
- IC50 [2, 8]: 18 nM
- IC50 (TYK2): 16 nM
- IC50 [3, 9]: 3.7 nM
- ALK % of inhibition at a concentration of 500 nM or 1 mM [4, 10]: 34%

SMILES: CN(C)S(=O)(=O)N1CCC(CC(=O)Nc2ccc3cc2CCc2cccc(c2)Nc2ncc(Cl)c(n2)N3)CC1 [Example A81, N-[6-Chloro-2,4,8,22-tetraazatetracyclo[14.3.1.1(3,7).1(9,13)]docosa-1(20),3(22),4,6,9(21),10,12,16,18-nonaen-12-yl]-2-{1-[(dimethylamino)sulfonyl]piperidin-4-yl}acetamide trifluoroacetate]
- IC50 [1, 7]: 24 nM
- IC50 [2, 8]: 4.7 nM
- IC50 (TYK2): 4.3 nM
- IC50 [3, 9]: 1.6 nM
- ALK % of inhibition at a concentration of 500 nM or 1 mM [4, 10]: 29%

SMILES: Cc1ccccc1C(=O)Nc1ccc2cc1CCc1cccc(c1)Nc1ncc(Cl)c(n1)N2 [Example B35, N-[6-Chloro-2,4,8,22-tetraazatetracyclo[14.3.1.1(3,7).1(9,13)]docosa-1(20), 3(22),4,6,9(21),10,12,16,18-nonaen-12-yl]-2-methylbenzamide trifluoroacetate]
- IC50 ([1]; Table B1): 1.4 nM
- IC50 ([2]; Table B1): 0.6 nM
- IC50 (TYK2; Table B1): 1.3 nM
- IC50 ([3]; Table B1): 0.35 nM
- IC50 [4, 6]: 76 nM

SMILES: O=C(Nc1ccc2cc1CCc1cccc(c1)Nc1ncc(Cl)c(n1)N2)c1ccccc1F [Example B38, N-[6-Chloro-2,4,8,22-tetraazatetracyclo[14.3.1.1(3,7).1(9,13)]docosa-1(20), 3(22),4,6,9(21),10,12,16,18-nonaen-12-yl]-2-fluorobenzamide trifluoroacetate]
- IC50 ([1]; Table B1): 4 nM
- IC50 ([2]; Table B1): 1.4 nM
- IC50 (TYK2; Table B1): 0.97 nM
- IC50 ([3]; Table B1): 0.26 nM
- IC50 [4, 6]: 210 nM

SMILES: CN1CCOc2cc(S(=O)(=O)Nc3ccc4cc3CCc3cccc(c3)Nc3ncc(Cl)c(n3)N4)ccc21 [Example B165, N-[6-Chloro-2,4,8,22-tetraazatetracyclo[14.3.1.1(3,7).1(9,13)]docosa-1(20),3(22),4,6,9(21),10,12,16,18-nonaen-12-yl]-4-methyl-3,4-dihydro-2H-1,4-benzoxazine-7-sulfonamide trifluoroacetate]
- IC50 ([1]; Table B1): 83 nM
- IC50 ([2]; Table B1): 13 nM
- IC50 (TYK2; Table B1): 20 nM
- IC50 ([3]; Table B1): 10 nM
- ALK % of inhibition at a concentration of 500 nM or 1 mM [4, 5]: 10%

SMILES: N#CCC(=O)N1CCC(CC(=O)Nc2ccc3cc2CCc2cncc(c2)Nc2ncc(Cl)c(n2)N3)CC1 [Example A245, N-[6-Chloro-2,4,8,18,22-pentaazatetracyclo[14.3.1.1(3,7).1(9,13)]docosa-1(20),3(22),4,6,9(21),10,12,16,18-nonaen-12-yl]-2-[1-(cyanoacetyl)piperidin-4-yl]acetamide bis(trifluoroacetate)]
- IC50 [1, 7]: > 400 nM
- IC50 [2, 8]: 3.2 nM
- IC50 (TYK2): 41 nM
- IC50 [3, 9]: 117 nM
- ALK % of inhibition at a concentration of 500 nM or 1 mM [4, 10]: 47%

SMILES: CC(=O)N1CCN(C(=O)Nc2ccc3cc2CCc2cncc(c2)Nc2ncc(Cl)c(n2)N3)CC1 [Example B317, 4-Acetyl-N-[6-chloro-2,4,8,18,22-pentaazatetracyclo[14.3.1.1(3,7).1(9,13)]docosa-1(20),3(22),4,6,9(21),10,12,16,18-nonaen-12-yl]piperazine-1-carboxamide bis(trifluoroacetate)]
- IC50 ([1]; Table B1): > 400 nM
- IC50 ([2]; Table B1): 57 nM
- IC50 (TYK2; Table B1): 356 nM
- IC50 ([3]; Table B1): > 400 nM
- ALK % of inhibition at a concentration of 500 nM or 1 mM [4, 11]: 50%

Reference: patent publication US8871753B2, “Macrocyclic compounds and their use as kinase inhibitors” (Incyte Corporation, priority 2008, dated 2014)
